{"source": "patent US11248024B2", "about": "“Noxa-derived, cell death-inducing peptide eMTD” (INDUSTRY-ACADEMIC COOPERATION FOUNDATION, CHOSUN UNIVERSITY, priority 2019, dated 2022)", "key": {"HeLa": {"tested_on": "HeLa", "assay": "MTS assay, relative cell viability, HeLa", "type": "cell-based, human", "protocol": "Individual cell lines (HeLa, CT26, and B16F10) were purchased from the Korean Cell Line Bank. Dulbecco's modified Eagle's medium (DMEM), trypsin-EDTA, fetal bovine serum (FBS), and Hank's balanced salt solution (HBSS) were products from Gibco (Thermo Fisher).\nEach of the cell lines was cultured in DMEM supplemented with 10% FBS in an incubator maintained at 37° C. and 5% 002.\nFor use in assaying the peptides eMTD (SEQ ID NO: 1) and eMTDΔ4 (SEQ ID NO: 2) synthesized in Example 1 for activity of inducing cell death, the cell line HeLa was grown to about 90% confluency in 96-well plates. The cells were washed once with HBSS buffer before treatment with the peptides of the present disclosure eMTD (SEQ ID NO: 1) and eMTDΔ4 (SEQ ID NO: 2) at concentrations of 0, 20, and 40 for one hour. Thereafter, the cells were incubated with an MTS assay agent (Promega) for one hour, followed by reading absorbance to calculate relative viability of cells.\nExamination was made to see whether the peptide has the activity of inducing cell death in other cancer cell lines. In this regard, the cancer cell lines HeLa, CT26, and B16F10 were treated with eMTDΔ4 (SEQ ID NO: 2) at concentrations of 0, 20, and 40 μM."}, "MDA-MB-231 cells": {"tested_on": "MDA-MB-231 cells", "assay": "Atomic force microscopy of pores formed on the cell membrane", "type": "cell-based", "protocol": "In this regard, MDA-MB-231 cells were treated with eMTDΔ4 (SEQ ID NO: 2) and pores formed on the cell membrane were observed using an atomic force microscope."}}, "note": "Ends that are not written are not given here.", "data": [{"sequence": "KLNFRQKLLNLISKLF [eMTDΔ4]", "values": [{"measurement": "Viability (%)", "setting": "HeLa; 20 μM, Table 4", "result": 11, "unit": "%"}, {"measurement": "Viability (%)", "setting": "HeLa; 20 μM, one hour treatment, Table 3", "result": 53, "unit": "%"}, {"measurement": "Viability (%)", "setting": "HeLa; 40 μM, one hour treatment, Table 3", "result": 40, "unit": "%"}, {"measurement": "cell death activity (in words)", "setting": "HeLa; FIG. 1 and Table 3", "result": "potent cell death activity"}, {"measurement": "induction of cell death (in words)", "setting": "HeLa; FIG. 3 and Table 4", "result": "induce cell death"}, {"measurement": "Counts of membrane pores", "setting": "MDA-MB-231 cells; Length 0.675~0.975, t = 30 sec", "result": 38.03}, {"measurement": "Counts of membrane pores", "setting": "MDA-MB-231 cells; Length 0.675~0.975, t = 2 min", "result": 20.63}, {"measurement": "Counts of membrane pores", "setting": "MDA-MB-231 cells; Length 0.675~0.975, t = 5 min", "result": 14.81}, {"measurement": "Counts of membrane pores", "setting": "MDA-MB-231 cells; Length 0.675~0.975, t = 40 min", "result": 2.5}, {"measurement": "Counts of membrane pores", "setting": "MDA-MB-231 cells; Length 1.025~1.325, t = 30 sec", "result": 43.66}, {"measurement": "Counts of membrane pores", "setting": "MDA-MB-231 cells; Length 1.025~1.325, t = 2 min", "result": 38.1}, {"measurement": "Counts of membrane pores", "setting": "MDA-MB-231 cells; Length 1.025~1.325, t = 5 min", "result": 39.51}, {"measurement": "Counts of membrane pores", "setting": "MDA-MB-231 cells; Length 1.025~1.325, t = 40 min", "result": 22.5}, {"measurement": "Counts of membrane pores", "setting": "MDA-MB-231 cells; Length 1.375~1.675, t = 30 sec", "result": 9.859}, {"measurement": "Counts of membrane pores", "setting": "MDA-MB-231 cells; Length 1.375~1.675, t = 2 min", "result": 20.63}, {"measurement": "Counts of membrane pores", "setting": "MDA-MB-231 cells; Length 1.375~1.675, t = 5 min", "result": 20.99}, {"measurement": "Counts of membrane pores", "setting": "MDA-MB-231 cells; Length 1.375~1.675, t = 40 min", "result": 22.5}, {"measurement": "Counts of membrane pores", "setting": "MDA-MB-231 cells; Length 1.725~2.025, t = 30 sec", "result": 4.225}, {"measurement": "Counts of membrane pores", "setting": "MDA-MB-231 cells; Length 1.725~2.025, t = 2 min", "result": 14.29}, {"measurement": "Counts of membrane pores", "setting": "MDA-MB-231 cells; Length 1.725~2.025, t = 5 min", "result": 13.58}, {"measurement": "Counts of membrane pores", "setting": "MDA-MB-231 cells; Length 1.725~2.025, t = 40 min", "result": 22.5}, {"measurement": "Counts of membrane pores", "setting": "MDA-MB-231 cells; Length 2.075~2.725, t = 30 sec", "result": 2.817}, {"measurement": "Counts of membrane pores", "setting": "MDA-MB-231 cells; Length 2.075~2.725, t = 2 min", "result": 6.349}, {"measurement": "Counts of membrane pores", "setting": "MDA-MB-231 cells; Length 2.075~2.725, t = 5 min", "result": 9.877}, {"measurement": "Counts of membrane pores", "setting": "MDA-MB-231 cells; Length 2.075~2.725, t = 40 min", "result": 22.5}, {"measurement": "Counts of membrane pores", "setting": "MDA-MB-231 cells; Length 2.775<, t = 30 sec", "result": 0}, {"measurement": "Counts of membrane pores", "setting": "MDA-MB-231 cells; Length 2.775<, t = 2 min", "result": 0}, {"measurement": "Counts of membrane pores", "setting": "MDA-MB-231 cells; Length 2.775<, t = 5 min", "result": 1.235}, {"measurement": "Counts of membrane pores", "setting": "MDA-MB-231 cells; Length 2.775<, t = 40 min", "result": 7.5}, {"measurement": "Counts of membrane pores", "setting": "MDA-MB-231 cells; Length >0.625, t = 30 sec", "result": 1.408}, {"measurement": "Counts of membrane pores", "setting": "MDA-MB-231 cells; Length >0.625, t = 2 min", "result": 0}, {"measurement": "Counts of membrane pores", "setting": "MDA-MB-231 cells; Length >0.625, t = 5 min", "result": 0}, {"measurement": "Counts of membrane pores", "setting": "MDA-MB-231 cells; Length >0.625, t = 40 min", "result": 0}, {"measurement": "pore formation on cell membrane (in words)", "setting": "MDA-MB-231 cells; MDA-MB-231, FIG. 10d and Table 7", "result": "larger pores were formed with time"}]}]}
